Data reported in US8765729B2, “Cancer therapy” (Aeolus Sciences, Inc., priority 2001, dated 2014).

How the values were obtained:
[1] = tested on: R3230 AC mammary adenocarcinoma; experiment: R3230 AC mammary adenocarcinoma growth and radiation response in Fischer 344 rats; type: in vivo; settings: for tumor growth as compared to control (Day 20 Tumor Ratio, Days for 5-fold tumor growth): 6 mg/kg/day IP Day 1 to 20, FIG. 2C
Experimental: FIGS. 2A-2C. (FIG. 2A) B16 melanoma tumor treated with SOD mimetic. The mimetic was 10113 at a dose of 6 mg/kg given intraperitoneally qd for 5 days. (FIG. 2B) Mammary adenocarcinoma treated with SOD mimetic. 10113 was given intraperitoneally at a dose of 6 mg/kg/day for 16 days. Radiation therapy (RT), 21 Gy, was given on day 8 or 9. (FIG. 2C) Fischer 344 rats with subcutaneously implanted R3230 AC mammary adenocarcinomas received Radiation treatment (21 Gy Day 1), AEOL 10113 (6 mg/kg/day IP Day 1 to 20), the combination Radiation and AEOL 10113 (as above), or Control treatment.
The effect of the MnTE-2-PyP (manganese(III) tetrakis(N-ethylpyridinium-2-yl)porphyrin) on tumor growth and radiation response in two tumor models has been tested. […] The effect of the SOD mimetic. MnTE-2-PyP, on tumor growth and radiation response has been tested in a rat model.
[…] AC mammary adenocarcinoma was transplanted on the right hind leg. When the tumors reached 0.8-1 cm in diameter, the rats were randomized into 4 groups to receive 1) Saline (control); 2) Drug 10150; 3) Drug 10113; 4) Drug 10201. Drugs were given daily in dose of […] i.p. The tumor size was measured twice a week. (FIG. 3).

[2] = tested on: R3230 mammary adenocarcinoma cells in Z-chambers; experiment: Tumor development in Z-chambers; type: in vivo, Fisher-344 rats; settings: 6 mg/kg i.p. 24 hours before implantation of 2.5 mil./ml cells
Experimental: FIG. 4. Animals were pretreated with different SOD mimetics (6 mg/kg i.p.) 24 hours before implantation of 2.5 mil./ml R3230 mammary adenocarcinoma cells in Z-chambers.
These chambers are constructed from customized plexi-glass rings with internal diameter of 10 mm and have a pore on the side. The two open surfaces are covered by nylon mesh (pore size 180 microns, Millipore, Mass.) and glued to the rings. Fibrinogen (Human fibrinogen, plasminogen depleted, CalBiochem) is prepared in DMEM, Gibco BRL) and a concentration of 4-5 mg/ml is utilized for the studies. Although the Fischer rats used in the study are immune competent, this purified batch of fibrinogen has been recognized to be very well conserved across species lines. It has already been shown that early angiogenic response to human fibrinogen is very similar to rat fibrinogen in fibrin gel chambers. The two different types of fibrinogen have also been tested in the Z-Chambers and no difference was found in angiogenic and healing response. Human fibrinogen was used.
The Fibrin Z-Chambers have fibrinogen solution poured inside the chamber through the pore and followed by 2 units of thrombin. […]
The Z-Chambers were harvested on day 1 or 12 post surgery. […] The depth of either the tumor tissue (tumor growth) or granulation tissue (wound healing) was measured with calipers on the 4×6 inch print. […]

[3] = tested on: radiation-induced lung injury; experiment: Radiation-induced lung injury in rats (28 Gy right hemithoracic irradiation); type: in vivo
Experimental: AEOL 10113 was tested (6 mg/kg/day for 5 days beginning on the day of irradiation) in a rat model of radiation-induced lung injury as assessed by breathing rate (animals with lung injury have a more rapid respiration rate), and chemical and microscopic measures of fibrosis. During the follow-up period of 6 months, 4 of the 9 rats receiving radiation only developed severe respiratory distress and were euthanized. In the group of rats treated with radiation plus AEOL 10113, only 1 of the 9 rats developed respiratory distress and was euthanized. Breathing rate data were analyzed on a last observation carried forward (LOCF) data set, in which the last observation for rats euthanized due to respiratory distress was imputed to subsequent weeks. There was a significant (log ranks p=0.0011) delay (approximately 3.4 weeks) in the development of radiation-induced lung injury (assessed by an increase in breathing rate) in animals treated with AEOL 10113 (FIG. 12).
Six months after radiation all remaining animals were euthanized. At that time, the right upper lung lobe was removed and processed to quantify the extent of lung fibrosis based on hydroxyproline content.
Radiation-induced lung fibrosis was also assessed using histopathology (FIG. 13B). Lungs were fixed in 10% neutral buffered formalin. Five-micron thick sections were stained with hematoxylin and eosin or Masson trichrome and examined microscopically. Slides were systematically scanned in a microscope using a ×10 objective. Each successive field was individually assessed for severity of interstitial fibrosis and allotted a score of between 0 and 8.
Studies were performed to evaluate changes in body weight after irradiation and to assess the radioprotective effect of MnTE-2-PyP on radiation-induced pulmonary injury in rats. The body weight and lung function of the animals were measured every two weeks after irradiation in three groups of animals: control, radiation alone and radiation+MnTE-2-PyP. A single dose of 28 Gy was delivered to right hemithorax and 6 mg/kg of MnTE-2-PyP was given daily i.p. for 5 days after irradiation. Unrestrained rats were placed in a 1500 ml whole body plethysmograph tube connected to a pressure transducer for a breathing rate measurements. […] The mean of five measurements was performed on each animal.

For CC[n+]1ccccc1-c1c2nc(c(-c3cccc[n+]3CC)c3ccc([n-]3)c(-c3cccc[n+]3CC)c3nc(c(-c4cccc[n+]4CC)c4ccc1[n-]4)C=C3)C=C2.[Mn+3] [Compound 10113, manganese(III)tetrakis(N-ethylpyridinium-2-yl)porphyrin], which “tumor growth as compared to control (Day 20 Tumor Ratio, Days for 5-fold tumor growth)” value ([1]; listed as AEL 10113) is on record?
The value was “limited tumor growth”.

And the “tumor growth as compared to control (Day 20 Tumor Ratio, Days for 5-fold tumor growth)” value ([1]; listed as AEOL 10113)?
Its value is “significantly (p<0.05) inhibited tumor growth”.

What about the post-radiation tumor regrowth ([1]; radiation 21 Gy plus mimetic) of the same compound?
The post-radiation tumor regrowth was “significant inhibition of the post-radiation tumor regrowth”.

And the “effect on tumor response to radiation” value ([1]; radiation 21 Gy plus mimetic, listed as AEL 10113)?
The value was “did not diminish the effect of radiation on tumor growth”.

What about the “effect on tumor response to radiation” value ([1]; radiation 21 Gy plus mimetic, listed as MnTE-2-PyP) of the same compound?
The value was “does not protect tumor from irradiation”.

And the “inhibition of tumor growth” value ([1]; rat model, SOD mimetic alone)?
Its value is over 50%.

What about the tumor development [2] of the same compound?
The tumor development was “Significant (p<0.01) inhibition of tumor development”.

And the “delay in the development of radiation-induced lung injury (increase in breathing rate)” value ([3]; 6 mg/kg/day for 5 days, LOCF, log ranks p=0.0011)?
The value was “approximately 3.4 weeks”.

And the “reduction of the magnitude of the increase in breathing rate at endpoint” value ([3]; 6 mg/kg/day for 5 days, average)?
The value was 34%.

And the “hydroxyproline content of upper right lobe after radiation” value ([3]; 6 months after 28 Gy, wet and dry lung)?
The value was “significant reduction (p<0.05)”.

And the “recovery of body weight loss after hemithoracic irradiation” value ([3]; 28 Gy, 6 mg/kg daily i.p. for 5 days)?
Its value is “significantly better recovery of the body weight loss”.

What about the “hydroxyproline content of right upper lobe vs control” value ([3]; AEOL 10113 without radiation) of the same compound?
The value was “no differences”.

What about the “radiation-induced lung fibrosis by histopathology” value ([3]; fibrosis score 0-8, FIG. 13B) of the same compound?
The value was “reduced radiation-induced lung fibrosis”.

What about the “rats that developed respiratory distress and were euthanized” value ([3]; of 9 rats, radiation plus AEOL 10113, 6 months, radiation only 4 of 9) of the same compound?
Its value is 1.
